Series [1] in a line: Cytotoxicity against HER-negative human MCF-10A cells incubated for 48 hrs by CCK-8 assay. The series is classed as toxicity, cell-based. (In general: Formazan colour is commonly taken as a measure of viable cells.)
The next series concerns SK-BR-3. As to the kind of experiment: cells. Conditions: Homo sapiens, SK-BR-3, 48 h.
The next series concerns NCI-N87. As to the kind of experiment: cells. Conditions: Homo sapiens, NCI-N87, 48 h.
The next series deals with SK-OV-3. Nature of the series: cells. The conditions noted are these: Homo sapiens, SK-OV-3, 48 h.
Another series relates to MDA-MB-231. As to the kind of experiment: cells. Conditions: Homo sapiens, MDA-MB-231, 48 h.

Peptide text beside a SMILES is read from it. * marks the point of attachment. X7 = CCC1(OC(=O)CCCCCN2C(=O)CC(SC[C@H](N)C(=O)*)C2=O)C(=O)OCc2c1cc1n(c2=O)Cc2cc3ccccc3nc2-1; X2 = CCC1(OC(=O)CCCCCN2C(=O)CC(*)C2=O)C(=O)OCc2c1cc1n(c2=O)Cc2cc3ccccc3nc2-1; X4 = CCC1(OC(=O)OCCSSC[C@H](N)C(=O)*)C(=O)OCc2c1cc1n(c2=O)Cc2cc3ccccc3nc2-1; X3 = CCC1(OC(=O)CCSSC[C@H](N)C(=O)*)C(=O)OCc2c1cc1n(c2=O)Cc2cc3ccccc3nc2-1; X6 = CCC1(OC(=O)OCCS*)C(=O)OCc2c1cc1n(c2=O)Cc2cc3ccccc3nc2-1; X1 = CCC1(C(=O)OCCS*)C(=O)OCc2c1cc1n(c2=O)Cc2cc3ccccc3nc2-1; X5 = CCC1(OC(=O)CCS*)C(=O)OCc2c1cc1n(c2=O)Cc2cc3ccccc3nc2-1 Some results are limits rather than exact numbers.

Description for MDA-MB-231: Cytotoxicity against HER-negative human MDA-MB-231 cells incubated for 48 hrs by CCK-8 assay
Description for NCI-N87: Cytotoxicity against HER-positive human NCI-N87 cells incubated for 48 hrs by CCK-8 assay
Description for SK-BR-3: Cytotoxicity against HER-positive human SK-BR-3 cells incubated for 48 hrs by CCK-8 assay
Description for SK-OV-3: Cytotoxicity against HER-positive human SK-OV-3 cells incubated for 48 hrs by CCK-8 assay

On to `CC[C@H](C)[C@H](NC(=O)[C@@H]1CCCN1C(=O)[C@@H](NC(=O)[C@H](C)N)C(C)C)C(=O)N[C@@H](C)C(=O)N[C@@H](CCC(N)=O)C(=O)N[C@@H](CCCCN)C(=O)NCC(=O)N[C@@H](Cc1ccccc1)C(=O)N[C@@H](CC(C)C)C(=O)NCC(=O)N[C@@H](CC(N)=O)C(=O)N1CCC[C@H]1C(=O)N[C@@H](CC(N)=O)C(=O)N[C@@H](Cc1c[nH]c2ccccc12)C(=O)NCC(=O)N[C@@H](CCCNC(=N)N)C(=O)N[C@@H](CO)C(=O)N[C@@H](Cc1c[nH]c2ccccc12)C(=O)N[C@@H](Cc1ccc(O)cc1)C(=O)N[C@@H](CC(N)=O)C(=O)N[C@@H](CCC(N)=O)C(=O)N[C@@H](CCCNC(=N)N)C(=O)N[C@@H](Cc1ccccc1)C(=O)N[C@@H](CCCCNC(=O)[C@@H](N)CSC1CC(=O)N(CCCCCC(=O)OC2(CC)C(=O)OCc3c2cc2n(c3=O)Cc3cc4ccccc4nc3-2)C1=O)C(N)=O` (stereo not given in full) (H-AVPIAQKGFLGNPNWGRSWYNQRFK(X7)-NH2), for which the IC50 (in general, the concentration that inhibits the measured activity by half) at 48 h in series [1] was > 50 µM. For the same compound, the IC50 was 12.6 µM in the series with SK-BR-3, 24.2 µM in the series with NCI-N87, > 50 µM in the series with SK-OV-3 and 31.4 µM in the series on MDA-MB-231.

As for `CC[C@H](C)[C@H](NC(=O)[C@@H]1CCCN1C(=O)[C@@H](NC(=O)[C@H](C)N)C(C)C)C(=O)N[C@@H](C)C(=O)N[C@@H](CCC(N)=O)C(=O)N[C@@H](CCCCN)C(=O)NCC(=O)N[C@@H](Cc1ccccc1)C(=O)N[C@@H](CC(C)C)C(=O)NCC(=O)N[C@@H](CSC1CC(=O)N(CCCCCC(=O)OC2(CC)C(=O)OCc3c2cc2n(c3=O)Cc3cc4ccccc4nc3-2)C1=O)C(=O)N[C@@H](CC(N)=O)C(=O)N1CCC[C@H]1C(=O)N[C@@H](CC(N)=O)C(=O)N[C@@H](Cc1c[nH]c2ccccc12)C(=O)NCC(=O)N[C@@H](CCCNC(=N)N)C(=O)N[C@@H](CO)C(=O)N[C@@H](Cc1c[nH]c2ccccc12)C(=O)N[C@@H](Cc1ccc(O)cc1)C(=O)N[C@@H](CC(N)=O)C(=O)N[C@@H](CCC(N)=O)C(=O)N[C@@H](CCCNC(=N)N)C(=O)N[C@@H](Cc1ccccc1)C(=O)N[C@@H](CCCCN)C(N)=O` (stereo not given in full) (H-AVPIAQKGFLGC(X2)NPNWGRSWYNQRFK-NH2), in series [1], the IC50 at 48 h is > 50 µM. Further, the IC50 in the series with SK-BR-3 was 18.3 µM; with NCI-N87 it was 25.3 µM; in the series on SK-OV-3 it was > 50 µM; in the series with MDA-MB-231 it was 30.6 µM.

Turning to `CC[C@H](C)[C@H](NC(=O)[C@@H]1CCCN1C(=O)[C@@H](NC(=O)[C@H](C)N)C(C)C)C(=O)N[C@@H](C)C(=O)N[C@@H](CCC(N)=O)C(=O)N[C@@H](CCCCN)C(=O)N[C@@H](CSSCCC(=O)OC1(CC)C(=O)OCc2c1cc1n(c2=O)Cc2cc3ccccc3nc2-1)C(=O)NCC(=O)N[C@@H](Cc1ccccc1)C(=O)N[C@@H](CC(C)C)C(=O)NCC(=O)N[C@@H](CC(N)=O)C(=O)N1CCC[C@H]1C(=O)N[C@@H](CC(N)=O)C(=O)N[C@@H](Cc1c[nH]c2ccccc12)C(=O)NCC(=O)N[C@@H](CCCNC(=N)N)C(=O)N[C@@H](CO)C(=O)N[C@@H](Cc1c[nH]c2ccccc12)C(=O)N[C@@H](Cc1ccc(O)cc1)C(=O)N[C@@H](CC(N)=O)C(=O)N[C@@H](CCC(N)=O)C(=O)N[C@@H](CCCNC(=N)N)C(=O)N[C@@H](Cc1ccccc1)C(=O)N[C@@H](CCCCN)C(N)=O` (stereo not given in full) (H-AVPIAQKC(X5)GFLGNPNWGRSWYNQRFK-NH2), the IC50 at 48 h in series [1] turned out to be 22.1 µM. For the same compound, the 50% inhibitory concentration (IC50) in the series with SK-BR-3 was found to be 1.78 µM; with NCI-N87 it was 6.53 µM; in the series on SK-OV-3, 5.81 µM; in the series with MDA-MB-231 it was 16.2 µM.

`CC[C@H](C)[C@H](NC(=O)[C@@H]1CCCN1C(=O)[C@@H](NC(=O)[C@H](C)N)C(C)C)C(=O)N[C@@H](C)C(=O)N[C@@H](CCC(N)=O)C(=O)N[C@@H](CCCCN)C(=O)NCC(=O)N[C@@H](Cc1ccccc1)C(=O)N[C@@H](CC(C)C)C(=O)NCC(=O)N[C@@H](CC(N)=O)C(=O)N1CCC[C@H]1C(=O)N[C@@H](CC(N)=O)C(=O)N[C@@H](Cc1c[nH]c2ccccc12)C(=O)NCC(=O)N[C@@H](CCCNC(=N)N)C(=O)N[C@@H](CO)C(=O)N[C@@H](Cc1c[nH]c2ccccc12)C(=O)N[C@@H](Cc1ccc(O)cc1)C(=O)N[C@@H](CC(N)=O)C(=O)N[C@@H](CCC(N)=O)C(=O)N[C@@H](CCCNC(=N)N)C(=O)N[C@@H](Cc1ccccc1)C(=O)N[C@@H](CCCCNC(=O)[C@@H](N)CSSCCOC(=O)OC1(CC)C(=O)OCc2c1cc1n(c2=O)Cc2cc3ccccc3nc2-1)C(N)=O` (stereo not given in full) (H-AVPIAQKGFLGNPNWGRSWYNQRFK(X4)-NH2): in series [1], the IC50 at 48 h was 15.2 µM. Also, the IC50 was determined as 0.58 µM in the series with SK-BR-3, 3.86 µM in the series on NCI-N87, 6.17 µM with SK-OV-3 and 4.73 µM in the series on MDA-MB-231.

Regarding `CC[C@H](C)[C@H](NC(=O)[C@@H]1CCCN1C(=O)[C@@H](NC(=O)[C@H](C)N)C(C)C)C(=O)N[C@@H](C)C(=O)N[C@@H](CCC(N)=O)C(=O)N[C@@H](CCCCN)C(=O)NCC(=O)N[C@@H](Cc1ccccc1)C(=O)N[C@@H](CC(C)C)C(=O)NCC(=O)N[C@@H](CC(N)=O)C(=O)N1CCC[C@H]1C(=O)N[C@@H](CC(N)=O)C(=O)N[C@@H](Cc1c[nH]c2ccccc12)C(=O)NCC(=O)N[C@@H](CCCNC(=N)N)C(=O)N[C@@H](CO)C(=O)N[C@@H](Cc1c[nH]c2ccccc12)C(=O)N[C@@H](Cc1ccc(O)cc1)C(=O)N[C@@H](CC(N)=O)C(=O)N[C@@H](CCC(N)=O)C(=O)N[C@@H](CCCNC(=N)N)C(=O)N[C@@H](Cc1ccccc1)C(=O)N[C@@H](CCCCNC(=O)[C@@H](N)CSSCCC(=O)OC1(CC)C(=O)OCc2c1cc1n(c2=O)Cc2cc3ccccc3nc2-1)C(N)=O` (stereo not given in full) (H-AVPIAQKGFLGNPNWGRSWYNQRFK(X3)-NH2), the IC50 at 48 h in series [1] was 28.4 µM. The IC50 with SK-BR-3 stood at 2.3 µM; in the series on NCI-N87, 8.01 µM; in the series on SK-OV-3 it was 4.73 µM; in the series with MDA-MB-231, 15.1 µM.

`CC[C@H](C)[C@H](NC(=O)[C@@H]1CCCN1C(=O)[C@@H](NC(=O)[C@H](C)N)C(C)C)C(=O)N[C@@H](C)C(=O)N[C@@H](CCC(N)=O)C(=O)N[C@@H](CCCCN)C(=O)NCC(=O)N[C@@H](Cc1ccccc1)C(=O)N[C@@H](CC(C)C)C(=O)NCC(=O)N[C@@H](CSSCCOC(=O)C1(CC)C(=O)OCc2c1cc1n(c2=O)Cc2cc3ccccc3nc2-1)C(=O)N[C@@H](CC(N)=O)C(=O)N1CCC[C@H]1C(=O)N[C@@H](CC(N)=O)C(=O)N[C@@H](Cc1c[nH]c2ccccc12)C(=O)NCC(=O)N[C@@H](CCCNC(=N)N)C(=O)N[C@@H](CO)C(=O)N[C@@H](Cc1c[nH]c2ccccc12)C(=O)N[C@@H](Cc1ccc(O)cc1)C(=O)N[C@@H](CC(N)=O)C(=O)N[C@@H](CCC(N)=O)C(=O)N[C@@H](CCCNC(=N)N)C(=O)N[C@@H](Cc1ccccc1)C(=O)N[C@@H](CCCCN)C(N)=O` (stereo not given in full) (H-AVPIAQKGFLGC(X1)NPNWGRSWYNQRFK-NH2): the IC50 at 48 h in series [1] stood at 15.1 µM. In addition, the 50% inhibitory concentration (IC50) in the series with SK-BR-3 amounted to 2.59 µM; in the series on NCI-N87, 5.93 µM; with SK-OV-3, 8.24 µM; in the series on MDA-MB-231 it was 10.6 µM.

In the case of `CC[C@H](C)[C@H](NC(=O)[C@@H]1CCCN1C(=O)[C@@H](NC(=O)[C@H](C)N)C(C)C)C(=O)N[C@@H](C)C(=O)N[C@@H](CCC(N)=O)C(=O)N[C@@H](CCCCN)C(=O)N[C@@H](CSC1CC(=O)N(CCCCCC(=O)OC2(CC)C(=O)OCc3c2cc2n(c3=O)Cc3cc4ccccc4nc3-2)C1=O)C(=O)NCC(=O)N[C@@H](Cc1ccccc1)C(=O)N[C@@H](CC(C)C)C(=O)NCC(=O)N[C@@H](CC(N)=O)C(=O)N1CCC[C@H]1C(=O)N[C@@H](CC(N)=O)C(=O)N[C@@H](Cc1c[nH]c2ccccc12)C(=O)NCC(=O)N[C@@H](CCCNC(=N)N)C(=O)N[C@@H](CO)C(=O)N[C@@H](Cc1c[nH]c2ccccc12)C(=O)N[C@@H](Cc1ccc(O)cc1)C(=O)N[C@@H](CC(N)=O)C(=O)N[C@@H](CCC(N)=O)C(=O)N[C@@H](CCCNC(=N)N)C(=O)N[C@@H](Cc1ccccc1)C(=O)N[C@@H](CCCCN)C(N)=O` (stereo not given in full) (H-AVPIAQKC(X2)GFLGNPNWGRSWYNQRFK-NH2), the half-inhibitory concentration (IC50) at 48 h in series [1] was > 50 µM. Also, the IC50 in the series with SK-BR-3 is 15.7 µM; with NCI-N87 it was 20.1 µM; with SK-OV-3, > 50 µM; in the series on MDA-MB-231, 28.2 µM.

Take `CC[C@H](C)[C@H](NC(=O)[C@@H]1CCCN1C(=O)[C@@H](NC(=O)[C@H](C)N)C(C)C)C(=O)N[C@@H](C)C(=O)N[C@@H](CCC(N)=O)C(=O)N[C@@H](CCCCN)C(=O)NCC(=O)N[C@@H](Cc1ccccc1)C(=O)N[C@@H](CC(C)C)C(=O)NCC(=O)N[C@@H](CSSCCOC(=O)OC1(CC)C(=O)OCc2c1cc1n(c2=O)Cc2cc3ccccc3nc2-1)C(=O)N[C@@H](CC(N)=O)C(=O)N1CCC[C@H]1C(=O)N[C@@H](CC(N)=O)C(=O)N[C@@H](Cc1c[nH]c2ccccc12)C(=O)NCC(=O)N[C@@H](CCCNC(=N)N)C(=O)N[C@@H](CO)C(=O)N[C@@H](Cc1c[nH]c2ccccc12)C(=O)N[C@@H](Cc1ccc(O)cc1)C(=O)N[C@@H](CC(N)=O)C(=O)N[C@@H](CCC(N)=O)C(=O)N[C@@H](CCCNC(=N)N)C(=O)N[C@@H](Cc1ccccc1)C(=O)N[C@@H](CCCCN)C(N)=O` (stereo not given in full) (H-AVPIAQKGFLGC(X6)NPNWGRSWYNQRFK-NH2): it took 18.2 µM to reach half-maximal inhibition in series [1] (IC50 at 48 h). The IC50 with SK-BR-3 was determined as 0.85 µM; in the series on NCI-N87, 3.04 µM; in the series on SK-OV-3, 4.03 µM; in the series on MDA-MB-231 it was 6.43 µM.

Values taken from ChEMBL document CHEMBL5537151, “Design, synthesis and bioactivity evaluation of novel fusion peptides and their CPT conjugates inducing effective anti-tumor responses on HER2 positive tumors” (Eur J Med Chem, 2024).
